What was measured:
MOR = details: brain homogenates, inverse agonists; ref Wang et al., 2004; cited from earlier work
KOR = KOR (Mus musculus, UniProt P33534); assay: Antagonism of U69,593-stimulated [35S]GTPγS binding in WT striatum; format: biochemical

O=C1/C(=C/c2ccccc2)C[C@@]2(O)[C@H]3Cc4ccc(O)c5c4[C@@]2(CCN3CC2CC2)[C@H]1O5 [BNTX]
suppression of MOR basal signaling activity (MOR): less than 10%

Oc1ccc2c3c1O[C@H]1c4[nH]c5c(c4C[C@@]4(O)[C@@H](C2)N(CC2CC2)CC[C@]314)C[C@@]1(O)[C@H]2Cc3ccc(O)c4c3[C@@]1(CCN2CC1CC1)[C@H]5O4 [NorBNI, Norbinaltorphimine]
IC50 (KOR): 6 ± 1.6 nM
blockade of U69,593 stimulated G protein activation (KOR; antagonist 10 μM, increasing concentrations of U69,593, WT): fully blocks
% competition (KOR; vs 10 μM U69,593, WT striatum, n=3): 99 ± 7%

Source: publication PMC4655192 (Neuropharmacology, 2015)
